Reference: ChEMBL document CHEMBL4831500, “Discovery of first-in-class imidazothiazole-based potent and selective ErbB4 (HER4) kinase inhibitors” (Eur J Med Chem, 2021)

Assays:
[1] = system: Panel NCI-60 (60 carcinoma cell lines); test: Growth inhibition of human panel NCI-60 (60 carcinoma cells) assessed as growth percent at 10 uM measured after 48 hrs by SRB assay relative to control; assay type: functional; conditions: read-out: Activity
[2] = system: MOLT-4; test: Antiproliferative activity against human MOLT-4 cells assessed as cell growth inhibition measured after 48 hrs by SRB assay; assay type: functional, cell-based; conditions: MOLT-4, 48 h
[3] = system: NCI-H522; test: Antiproliferative activity against human NCI-H522 cells assessed as cell growth inhibition measured after 48 hrs by SRB assay; assay type: functional, cell-based; conditions: NCI-H522, 48 h
[4] = system: HCC 2998; test: Antiproliferative activity against human HCC 2998 cells assessed as cell growth inhibition measured after 48 hrs by SRB assay; assay type: functional, cell-based; conditions: HCC 2998, 48 h
[5] = system: SK-MEL-5; test: Antiproliferative activity against human SK-MEL-5 cells assessed as cell growth inhibition measured after 48 hrs by SRB assay; assay type: functional, cell-based; conditions: SK-MEL-5, 48 h
[6] = system: OVCAR-4; test: Antiproliferative activity against human OVCAR-4 cells assessed as cell growth inhibition measured after 48 hrs by SRB assay; assay type: functional, cell-based; conditions: OVCAR-4, 48 h
[7] = system: UO-31; test: Antiproliferative activity against human UO-31 cells assessed as cell growth inhibition measured after 48 hrs by SRB assay; assay type: functional, cell-based; conditions: UO-31, 48 h
[8] = system: DU-145; test: Antiproliferative activity against human DU-145 cells assessed as cell growth inhibition measured after 48 hrs by SRB assay; assay type: functional, cell-based; conditions: DU-145, 48 h
[9] = system: MDA-MB-468; test: Antiproliferative activity against human MDA-MB-468 cells assessed as cell growth inhibition measured after 48 hrs by SRB assay; assay type: functional, cell-based; conditions: MDA-MB-468, 48 h
[10] = system: HL-60(TB); test: Antiproliferative activity against human HL-60(TB) cells assessed as cell growth inhibition measured after 48 hrs by SRB assay; assay type: functional, cell-based; conditions: HL-60, 48 h
[11] = system: NCI-H322M; test: Antiproliferative activity against human NCI-H322M cells assessed as cell growth inhibition measured after 48 hrs by SRB assay; assay type: functional, cell-based
[12] = system: SNB-75; test: Antiproliferative activity against human SNB-75 cells assessed as cell growth inhibition measured after 48 hrs by SRB assay; assay type: functional, cell-based; conditions: SNB-75, 48 h
[13] = system: U-251; test: Antiproliferative activity against human U-251 cells assessed as cell growth inhibition measured after 48 hrs by SRB assay; assay type: functional, cell-based; conditions: U-251, 48 h

| SMILES | growth at 10 µM [1] [%] | further results |
| --- | --- | --- |
| CS(=O)(=O)c1nccc(-c2c(-c3ccc(OCCc4ccccc4)cc3)nc3sccn23)n1 | 91.2 | – |
| CS(=O)(=O)c1nccc(-c2c(-c3cccc(OCCc4ccccc4)c3)nc3sccn23)n1 | 96 | – |
| c1ccc(CCOc2cccc(-c3nc4sccn4c3-c3ccccc3)c2)cc1 | 98.9 | – |
| CN(C)CCOc1ccc(-c2nc3sccn3c2-c2ccnc(S(C)(=O)=O)n2)cc1 | 102 | – |
| O=C(COc1cccc(-c2nc3sccn3c2-c2ccncn2)c1)c1ccccc1 | 97 | – |
| CS(=O)(=O)c1cccc(-c2c(-c3cccc(O)c3)nc3sccn23)c1 | 99.2 | – |
| CS(=O)(=O)c1cccc(-c2c(-c3cccc(OCc4ccccc4)c3)nc3sccn23)c1 | 87.6 | – |
| CC(C)N(CCOc1cccc(-c2nc3sccn3c2-c2ccnc(S(C)(=O)=O)n2)c1)C(C)C | 81.8 | – |
| C=CC(=O)N1CCC[C@@H](n2nc(-c3ccc(Oc4ccccc4)cc3)c3c(N)ncnc32)C1 [IBRUTINIB] | – | IC50 [2]: 3.98 µM; IC50 [3]: 0.06 µM; IC50 [4]: 15.8 µM; IC50 [5]: 6.31 µM; IC50 [6]: 7.94 µM; IC50 [7]: 1.26 µM; IC50 [8]: 2 µM; IC50 [9]: 0.03 µM; IC50 [10]: 19.9 µM; IC50 [11]: 0.1 µM; IC50 [12]: 3.16 µM; IC50 [13]: 6.31 µM |
| CS(=O)(=O)c1nccc(-c2c(-c3cccc(OCCc4ccc(F)cc4)c3)nc3sccn23)n1 | 91.6 | – |
| CS(=O)(=O)c1cccc(-c2c(-c3cccc(OCC(=O)c4ccccc4)c3)nc3sccn23)c1 | 91 | – |
| c1ccc(COc2cccc(-c3nc4sccn4c3-c3ccccc3)c2)cc1 | 99.3 | – |
| CS(=O)(=O)c1nccc(-c2c(-c3cccc(OCc4ccccc4)c3)nc3occn23)n1 | 101 | – |
| CS(=O)(=O)c1nccc(-c2c(-c3cccc(O)c3)nc3occn23)n1 | 102 | – |
| Fc1ccc(CCOc2cccc(-c3nc4sccn4c3-c3ccncn3)c2)cc1 | 96 | – |
| O=C(COc1cccc(-c2nc3sccn3c2-c2ccccc2)c1)c1ccccc1 | 84.6 | – |
| CC(C)N(CCOc1ccc(-c2nc3sccn3c2-c2ccnc(S(C)(=O)=O)n2)cc1)C(C)C | 81.1 | – |
| CS(=O)(=O)c1cccc(-c2c(-c3cccc(OCCc4ccccc4)c3)nc3sccn23)c1 | 95.3 | – |
| CN(C)CCOc1cccc(-c2nc3sccn3c2-c2ccnc(S(C)(=O)=O)n2)c1 | 93.7 | – |
| Fc1ccc(COc2cccc(-c3nc4sccn4c3-c3ccccc3)c2)cc1 | 97.8 | – |
| CS(=O)(=O)c1nccc(-c2c(-c3cccc(OCc4ccc(F)cc4)c3)nc3occn23)n1 | 89.7 | – |

| SMILES | growth at 10 µM [1] [%] | further results |
| --- | --- | --- |
| CS(=O)(=O)c1nccc(-c2c(-c3cccc(OCCN4CCCC4)c3)nc3sccn23)n1 | 94.2 | – |
| CS(=O)(=O)c1nccc(-c2c(-c3cccc(OCC(=O)c4ccccc4)c3)nc3sccn23)n1 | 94 | – |
| COc1cccc(-c2nc3sccn3c2-c2cccc(S(C)(=O)=O)c2)c1 | 99.8 | – |
| Oc1cccc(-c2nc3sccn3c2-c2ccccc2)c1 | 94 | – |
| CS(=O)(=O)c1nccc(-c2c(-c3ccc(OCCN4CCOCC4)cc3)nc3sccn23)n1 | 101 | – |
| CS(=O)(=O)c1nccc(-c2c(-c3cccc(OCCN4CCOCC4)c3)nc3sccn23)n1 | 83.5 | – |
| CS(=O)(=O)c1nccc(-c2c(-c3ccc(OCCN4CCCC4)cc3)nc3sccn23)n1 | 101 | – |
| CS(=O)(=O)c1cccc(-c2c(-c3cccc(OCCc4ccc(F)cc4)c3)nc3sccn23)c1 | 82.9 | – |
| COc1ccc(-c2nc3sccn3c2-c2ccnc(S(C)(=O)=O)n2)cc1 | 73 | – |
| COc1cccc(-c2nc3sccn3c2-c2ccccc2)c1 | 96.6 | – |
| Fc1ccc(COc2cccc(-c3nc4sccn4c3-c3ccncn3)c2)cc1 | 76.3 | – |
| CS(=O)(=O)c1cccc(-c2c(-c3cccc(OCc4ccc(F)cc4)c3)nc3sccn23)c1 | 74.7 | – |
| Oc1cccc(-c2nc3sccn3c2-c2ccncn2)c1 | 85.5 | – |
| CS(=O)(=O)c1nccc(-c2c(-c3ccc(O)cc3)nc3sccn23)n1 | 99.7 | – |
| Fc1ccc(CCOc2cccc(-c3nc4sccn4c3-c3ccccc3)c2)cc1 | 87.5 | – |
| CS(=O)(=O)c1nccc(-c2c(-c3cccc(OS(N)(=O)=O)c3)nc3sccn23)n1 | 97.9 | – |
| CS(=O)(=O)c1nccc(-c2c(-c3ccc(OCc4ccccc4)cc3)nc3sccn23)n1 | 95.1 | – |
| c1ccc(CCOc2cccc(-c3nc4sccn4c3-c3ccncn3)c2)cc1 | 96.4 | – |
| COc1cccc(-c2nc3occn3c2-c2ccnc(S(C)(=O)=O)n2)c1 | 96 | – |
| CS(=O)(=O)c1nccc(-c2c(-c3cccc(O)c3)nc3sccn23)n1 | 90 | – |
| CNC(=O)c1cc(Oc2ccc(NC(=O)Nc3ccc(Cl)c(C(F)(F)F)c3)cc2)ccn1 [SORAFENIB] | – | IC50 [3]: 5.01 µM; IC50 [5]: 2.51 µM |
